“Also recorded” adds a separate entry of the source. Each block holds one molecule with its values, some of them ahead of it.
Key:
[1] = test system: GPR40; design: method as in ref 15-26 = [15]; PMID 22519963; doi:10.1021/jm300215x; 15. Shimpukade B. Hudson B.D. Hovgaard C.K. Milligan G. Ulven T. Discovery of a potent and selective GPR120 agonist J. Med. Chem. 2012 55 4511 4515 10.1021/jm300215x 22519963 || [16]; PMID 24881566; doi:10.1016/j.bmcl.2014.05.012; 16. Sparks S.M. Chen G. Collins J.L. Danger D. Dock S.T. Jayawickreme C. Jenkinson S. Laudeman C. Leesnitzer M.A. Liang X. Identification of diarylsulfonamides as agonists of the free fatty acid recep || [17]; PMID 27570890; doi:10.1021/acs.jmedchem.6b00685; 17. Azevedo C.M. Watterson K.R. Wargent E.T. Hansen S.V. Hudson B.D. Kepczynska M.A. Dunlop J. Shimpukade B. Christiansen E. Milligan G. Non-Acidic Free Fatty Acid Receptor 4 Agonists with Antidiabeti || [18]; PMID 27815121; doi:10.1016/j.bmcl.2016.10.054; 18. Lombardo M. Bender K. London C. Kirkland M. Mane J. Pachanski M. Geissler W. Cummings J. Habulihaz B. Akiyama T.E. Discovery of benzofuran propanoic acid GPR120 agonists: From uHTS hit to mechanis || [19]; PMID 28105282; doi:10.1021/acsmedchemlett.6b00394; 19. Adams G.L. Velazquez F. Jayne C. Shah U. Miao S. Ashley E.R. Madeira M. Akiyama T.E. Di Salvo J. Suzuki T. Discovery of Chromane Propionic Acid Analogues as Selective Agonists of GPR120 with in Vi; conditions: cited from earlier work; for EC50: Figure 1, representative GPR120 agonists
[2] = test system: GPR120; design: method as in ref 15-26 = [15]; PMID 22519963; doi:10.1021/jm300215x; 15. Shimpukade B. Hudson B.D. Hovgaard C.K. Milligan G. Ulven T. Discovery of a potent and selective GPR120 agonist J. Med. Chem. 2012 55 4511 4515 10.1021/jm300215x 22519963 || [16]; PMID 24881566; doi:10.1016/j.bmcl.2014.05.012; 16. Sparks S.M. Chen G. Collins J.L. Danger D. Dock S.T. Jayawickreme C. Jenkinson S. Laudeman C. Leesnitzer M.A. Liang X. Identification of diarylsulfonamides as agonists of the free fatty acid recep || [17]; PMID 27570890; doi:10.1021/acs.jmedchem.6b00685; 17. Azevedo C.M. Watterson K.R. Wargent E.T. Hansen S.V. Hudson B.D. Kepczynska M.A. Dunlop J. Shimpukade B. Christiansen E. Milligan G. Non-Acidic Free Fatty Acid Receptor 4 Agonists with Antidiabeti || [18]; PMID 27815121; doi:10.1016/j.bmcl.2016.10.054; 18. Lombardo M. Bender K. London C. Kirkland M. Mane J. Pachanski M. Geissler W. Cummings J. Habulihaz B. Akiyama T.E. Discovery of benzofuran propanoic acid GPR120 agonists: From uHTS hit to mechanis || [19]; PMID 28105282; doi:10.1021/acsmedchemlett.6b00394; 19. Adams G.L. Velazquez F. Jayne C. Shah U. Miao S. Ashley E.R. Madeira M. Akiyama T.E. Di Salvo J. Suzuki T. Discovery of Chromane Propionic Acid Analogues as Selective Agonists of GPR120 with in Vi; conditions: Figure 1, representative GPR120 agonists; cited from earlier work
[3] = test system: hGPR40; design: method as in ref 15-26 = [15]; PMID 22519963; doi:10.1021/jm300215x; 15. Shimpukade B. Hudson B.D. Hovgaard C.K. Milligan G. Ulven T. Discovery of a potent and selective GPR120 agonist J. Med. Chem. 2012 55 4511 4515 10.1021/jm300215x 22519963 || [16]; PMID 24881566; doi:10.1016/j.bmcl.2014.05.012; 16. Sparks S.M. Chen G. Collins J.L. Danger D. Dock S.T. Jayawickreme C. Jenkinson S. Laudeman C. Leesnitzer M.A. Liang X. Identification of diarylsulfonamides as agonists of the free fatty acid recep || [17]; PMID 27570890; doi:10.1021/acs.jmedchem.6b00685; 17. Azevedo C.M. Watterson K.R. Wargent E.T. Hansen S.V. Hudson B.D. Kepczynska M.A. Dunlop J. Shimpukade B. Christiansen E. Milligan G. Non-Acidic Free Fatty Acid Receptor 4 Agonists with Antidiabeti || [18]; PMID 27815121; doi:10.1016/j.bmcl.2016.10.054; 18. Lombardo M. Bender K. London C. Kirkland M. Mane J. Pachanski M. Geissler W. Cummings J. Habulihaz B. Akiyama T.E. Discovery of benzofuran propanoic acid GPR120 agonists: From uHTS hit to mechanis || [19]; PMID 28105282; doi:10.1021/acsmedchemlett.6b00394; 19. Adams G.L. Velazquez F. Jayne C. Shah U. Miao S. Ashley E.R. Madeira M. Akiyama T.E. Di Salvo J. Suzuki T. Discovery of Chromane Propionic Acid Analogues as Selective Agonists of GPR120 with in Vi; conditions: Figure 1; cited from earlier work
[4] = test system: human GPR120; design: method as in ref 15-27 = [15]; PMID 22519963; doi:10.1021/jm300215x; 15. Shimpukade B. Hudson B.D. Hovgaard C.K. Milligan G. Ulven T. Discovery of a potent and selective GPR120 agonist J. Med. Chem. 2012 55 4511 4515 10.1021/jm300215x 22519963 || [16]; PMID 24881566; doi:10.1016/j.bmcl.2014.05.012; 16. Sparks S.M. Chen G. Collins J.L. Danger D. Dock S.T. Jayawickreme C. Jenkinson S. Laudeman C. Leesnitzer M.A. Liang X. Identification of diarylsulfonamides as agonists of the free fatty acid recep || [17]; PMID 27570890; doi:10.1021/acs.jmedchem.6b00685; 17. Azevedo C.M. Watterson K.R. Wargent E.T. Hansen S.V. Hudson B.D. Kepczynska M.A. Dunlop J. Shimpukade B. Christiansen E. Milligan G. Non-Acidic Free Fatty Acid Receptor 4 Agonists with Antidiabeti || [18]; PMID 27815121; doi:10.1016/j.bmcl.2016.10.054; 18. Lombardo M. Bender K. London C. Kirkland M. Mane J. Pachanski M. Geissler W. Cummings J. Habulihaz B. Akiyama T.E. Discovery of benzofuran propanoic acid GPR120 agonists: From uHTS hit to mechanis || [19]; PMID 28105282; doi:10.1021/acsmedchemlett.6b00394; 19. Adams G.L. Velazquez F. Jayne C. Shah U. Miao S. Ashley E.R. Madeira M. Akiyama T.E. Di Salvo J. Suzuki T. Discovery of Chromane Propionic Acid Analogues as Selective Agonists of GPR120 with in Vi; conditions: cited from earlier work
[5] = biological target: T1, human GPR120 (hGPR120) (Homo sapiens, UniProt Q5NUL3); experiment: Calcium flux assay in hGPR120-transfected CHO cells
T1 sequence (Q5NUL3 1-361): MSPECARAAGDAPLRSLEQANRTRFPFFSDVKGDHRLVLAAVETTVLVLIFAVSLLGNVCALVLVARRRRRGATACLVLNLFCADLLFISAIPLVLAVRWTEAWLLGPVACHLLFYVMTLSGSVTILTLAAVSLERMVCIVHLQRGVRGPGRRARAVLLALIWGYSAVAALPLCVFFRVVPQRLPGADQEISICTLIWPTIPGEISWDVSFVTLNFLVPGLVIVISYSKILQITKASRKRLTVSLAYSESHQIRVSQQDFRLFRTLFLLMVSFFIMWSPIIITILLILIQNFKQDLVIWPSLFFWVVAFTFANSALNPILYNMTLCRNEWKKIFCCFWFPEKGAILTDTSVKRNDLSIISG
Description: (§1) A calcium flux assay was performed to assess the agonist activity of the test compounds against the hGPR120 (mGPR120) and hGPR40 (mGPR40) receptors. […] The medium in the wells was gently discarded, and the wells were washed with Hank’s balanced salt solution (HBSS; 100 μL per well). […] The cells were then washed thrice in HBSS and allowed to equilibrate for 10 min before conducting the assay. Test compounds dissolved in dimethyl sulfoxide were diluted in HBSS at various concentrations and added to Fluo-4 AM-containing cells, and intracellular Ca^2+ concentrations were measured using FlexStation3 Molecular Devices. The EC50 value of each compound was calculated using GraphPad Prism software (version 5.0; GraphPad Software, San Diego, CA, USA).

[6] = Pharmacokinetic analysis in C57BL/6 mice; assay type: in vivo; conditions: C57BL/6 mice
Description: The pharmacokinetic profiles of 10k and 14d were obtained from C57BL/6 mice. […] The pharmacokinetic profiles traces were shown in the Supplementary Materials (Figure S1, see Supporting Materials).
Plasma was collected and precipitated using two volumes of acetonitrile containing an internal standard. This was followed by centrifugation at 15.680 g for 10 min after vortexing for 5 min. The supernatant was diluted with acetonitrile and 10 µL of the supernatant was analyzed by Waters LC-PDA-MS/MS to determine plasma drug levels. Pharmacokinetic parameters were determined using mean data from four mice at each time point. Statistical analysis of the data was performed using the DAS 2.1.1 statistical software program (BioVoice, Shanghai, China).

[7] = biological target: human GPR40 (hGPR40) (Homo sapiens, UniProt O14842); experiment: Calcium flux assay in hGPR40-expressing CHO cells
human GPR40 (hGPR40), sequence (O14842 whole entry): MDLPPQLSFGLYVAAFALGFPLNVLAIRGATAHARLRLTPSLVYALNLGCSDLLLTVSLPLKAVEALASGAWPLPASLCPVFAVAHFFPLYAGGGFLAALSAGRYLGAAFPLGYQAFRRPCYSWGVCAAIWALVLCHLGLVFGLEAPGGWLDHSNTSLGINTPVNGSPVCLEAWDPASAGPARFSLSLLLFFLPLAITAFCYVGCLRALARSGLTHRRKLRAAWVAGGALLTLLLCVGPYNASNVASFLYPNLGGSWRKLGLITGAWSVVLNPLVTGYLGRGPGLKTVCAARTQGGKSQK
Description: as §1

Compound: O=C(O)CC1CCC2(CC1)CCN(c1cc(OC(F)(F)F)ccc1Cl)CC2 [Compound 2]
EC50 [1]: > 10000 nM

Compound: Cc1ccc(-n2nc(C)c3cnc(-c4ccc([C@H]5C[C@@H]5C(=O)O)cc4)cc32)nc1 [Compound 3]
EC50 [1]: > 100000 nM
EC50 [2]: 740 nM

Compound: CO[C@H]1C[C@H](Oc2cc(F)c(F)c(-c3ccc4c(c3)CC[C@H](CCC(=O)O)O4)c2)C1 [Compound 4]
EC50 [1]: > 10000 nM
EC50 [2]: 35 nM

Compound: O=S1(=O)c2ccccc2CN1c1cc(F)cc(Oc2ccccn2)c1 [Compound 5]
GPR40 activity ([1]; at 100 μM, Figure 1): Inactive
EC50 [2]: 123 nM

Compound: CO[C@H]1C[C@H](Oc2cc(F)c(F)c(-c3c(F)cc(OCCCC(=O)O)cc3F)c2)C1 [Compound 6]
EC50 [3]: > 100000 nM
EC50 [4]: 93 nM

Compound: O=C(O)CCc1cc(F)c(OCc2c(-c3ccc(Cl)cc3F)nsc2C(F)(F)F)c(F)c1 [Compound 7]
EC50 [1]: > 5000 nM
EC50 [2]: 42 nM

Compound: Cc1ccc(-c2ccc(F)cc2COc2ccc(CC3SC(=O)NC3=O)c(Cl)c2)cc1 (stereo not shown) [Compound 8]
EC50 [1]: 79000 nM
EC50 [2]: 76 nM

EC50 [5]: 57.6 nM
Selectivity ([5]; hGPR120 over hGPR40): 1289.9
Tmax ([6]; male, mouse, plasma, po, 10 mg/kg gavage): 30 min
Cmax ([6]; male, mouse, plasma, po, 10 mg/kg gavage, 0.5% MC, mean ± SD of four mice): 2370 ± 335 ng/mL
AUC ([6]; male, mouse, plasma, po, 10 mg/kg gavage, mean ± SD of four mice): 4250 ± 577 ng·h/mL
half-life ([6]; male, mouse, plasma, po, 10 mg/kg gavage, mean ± SD of four mice, read-out: t1/2 (converted)): 66 ± 18 min
EC50 [7]: 74300 nM
melting point: 130 to 132 °C
Compound: Cc1ccc(-c2ccc(F)cc2OCc2ccc(OCCCC(=O)O)c(F)c2)cc1 [Compound 10k, 4-(2-fluoro-4-(((4-fluoro-4′-methyl-[1,1′-biphenyl]-2-yl)oxy)methyl)phenoxy)butanoic acid]
metabolic stability in vivo ([6]; pharmacokinetics, in words): higher metabolic stability than TUG-891; also recorded: excellent metabolic stability
